Test results taken from US8618051B2, “Vesiculins” (Auckland Uniservices Limited, priority 2005, dated 2013).

System: rat soleus muscle strips
Experiment: rat soleus muscle assay: D-[14C(U)]-glucose incorporation into muscle glycogen
Settings: isolated soleus muscle strips of fasted male Wistar rats; peptide 0.71 nM to 237 nM; 120 minutes at 30° C.; read-out: EC50, stimulating the uptake and incorporation of radioactive glucose into muscle glycogen
Description: The soleus muscle was dissected from anaesthetized fasted male Wistar rats (200 g±20 g). Each muscle was then teased longitudinally into 3 equal strips with a final radius of approximately 1.5 mm. An average of six muscle strips were transferred into flasks, containing 10 ml of carbogen-saturated nDMEM and peptide (vesiculin, insulin-II, or commercial human IGF-II (GroPep)) at concentrations ranging from 0.71 nM to 237 nM, before the addition of 10 μl of (0.5 μCi) D-[^14C(U)]-Glucose. Flasks were then incubated in a shaking water bath for 120 minutes at 30° C. under a stream of carbogen.
After incubation, the muscle strips were removed and blotted dry before being frozen instantly in liquid nitrogen and freeze-dried for 24 hours. The dried weight of muscle strip was recorded before the muscle strips were solubilised in 250 μl of 60% KOH (70° C. water bath for 45 minutes). 750 μl of ice-cold ethanol was then added and the tubes were left overnight at −20° C. to facilitate glycogen precipitation. Tubes were then centrifuged at 9000 g for 15 minutes at 0° C., the supernatant aspirated and the glycogen pellet resuspended in 750 μl of ice-cold ethanol. […] The tubes were mixed thoroughly, and then counted using a Beckman LS 3801 β-counter. The amount of D-[^14C(U)]-Glucose incorporation into muscle glycogen was calculated by dividing the cpm values by the dry muscle weight. […]

Row | EC50 [nM] | Substance
1 | 48 | human IGF-II: commercial human IGF-II (GroPep), used as a further positive control
2 | 27 | mouse insulin-II: insulin-II co-purified from βTC6-F7 granules as a preparative control
